Data set [1] is described as follows: log P determination by LC-MS in the acidic range. The settings on record: for chromatographic logP: reversed-phase HPLC column (C18). The class given is physicochemical. From the text: The LC-MS determination in the acidic range is effected at pH 2.7 using 0.1% aqueous formic acid and acetonitrile (contains 0.1% formic acid) as eluents, linear gradient from 10% acetonitrile to 95% acetonitrile. Alternatively, the determination is effected in the acidic range at pH 2.3 using 0.1% aqueous phosphoric acid and acetonitrile as eluents; linear gradient from 10% acetonitrile to 95% acetonitrile.

The next data set concerns Myzus persicae. The data set is described as follows: Myzus persicae - sachet test. The class given is in vivo. The settings on record: 100% = all animals killed. The procedure, abridged: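 Green peach aphids feed through a sealed sachet on nutrient medium containing the water-diluted formulation (solvents: 2% N-methylpyrrolidone, 2% diacetone alcohol). Percent mortality read after the chosen time; 100% means all animals killed.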

Setting [2] is: application rate of 6 ppm in nutrient medium.
Setting [3] is: application rate of 30 ppm in nutrient medium.
The mark [4] stands for this setting: Table 2, compounds of the formula (I-2), acidic range pH 2.7 or pH 2.3.
The mark [5] stands for this setting: Table 3, HPLC on reversed-phase column (C 18), 55° C., acidic range (pH 2.7 or pH 2.3).

Molecules are shown by their SMILES. Read-outs that look alike come from different tables or passages of the source.

`CCCCNC(=O)n1nc(NC(=O)c2cccnc2)cc1C` [Compound I-1-315]: the “log P (acid)” value in data set [1] (LC-MS in the acidic range) amounted to 1.92. The “efficacy (kill in %)” value in the data set with Myzus persicae (setting [2]) and in the data set on Myzus persicae (setting [3]) was 100% throughout.

With `Cc1cc(NC(=O)c2cccnc2)nn1C(=O)NCC1CC1` [Compound I-1-316], the “log P (acid)” value in data set [1] (LC-MS in the acidic range) is 1.65. Moreover, the “efficacy (kill in %)” value in the data set with Myzus persicae (setting [2]) and with Myzus persicae (setting [3]) was 100% each time.

Take `Cc1cc(NC(=O)c2cccnc2)nn1C(=O)NC(C)(C)C` [Compound I-1-319]: the “log P (acid)” value in data set [1] (LC-MS in the acidic range) is recorded as 1.99. Further, the “efficacy (kill in %)” value with Myzus persicae (setting [2]) and in the data set with Myzus persicae (setting [3]) was 100% each time.

In the case of `Cc1cc(NC(=O)c2cccnc2)nn1C(=O)NCc1ccccc1` [Compound I-1-322], the “log P (acid)” value in data set [1] (LC-MS in the acidic range) stood at 1.97. Moreover, the “efficacy (kill in %)” value in the data set on Myzus persicae (setting [2]) and in the data set on Myzus persicae (setting [3]) was 100% in each case.

Turning to `Cc1cc(NC(=O)c2cccnc2)nn1C(=O)NCc1ccccc1Cl` [Compound I-1-323], in data set [1] (LC-MS in the acidic range), the “log P (acid)” value is recorded as 2.29. Moreover, the “efficacy (kill in %)” value in the data set on Myzus persicae (setting [2]) and with Myzus persicae (setting [3]) was 100% throughout.

Regarding `Cc1cc(NC(=O)c2cccnc2)nn1C(=O)NCc1cccc(Cl)c1` [Compound I-1-324], in data set [1] (LC-MS in the acidic range), the “log P (acid)” value was determined as 2.39. The “efficacy (kill in %)” value in the data set with Myzus persicae (setting [2]) and in the data set with Myzus persicae (setting [3]) was 100% throughout.

Take `Cc1cc(NC(=O)c2cccnc2)nn1C(=O)NCc1ccc(Cl)cc1` [Compound I-1-325]: the “log P (acid)” value in data set [1] (LC-MS in the acidic range) is recorded as 2.34. For the same molecule, the “efficacy (kill in %)” value with Myzus persicae (setting [2]) and in the data set on Myzus persicae (setting [3]) was 100% in each case.

In the case of `Cc1cc(NC(=O)c2cccnc2)nn1C(=O)NCc1ccccc1F` [Compound I-1-326], the “log P (acid)” value in data set [1] (LC-MS in the acidic range) is on record as 2.04. For the same molecule, the “efficacy (kill in %)” value in the data set on Myzus persicae (setting [2]) and with Myzus persicae (setting [3]) was 100% throughout.

On to `Cc1cc(NC(=O)c2cccnc2)nn1C(=O)NCc1cccc(F)c1` [Compound I-1-327], for which the “log P (acid)” value in data set [1] (LC-MS in the acidic range) was 2.1. The “efficacy (kill in %)” value with Myzus persicae (setting [2]) and with Myzus persicae (setting [3]) was 100% each time.

In the case of `Cc1cc(NC(=O)c2cccnc2)nn1C(=O)NCc1ccc(F)cc1` [Compound I-1-328], in data set [1] (LC-MS in the acidic range), the “log P (acid)” value amounted to 2.12. Also, the “efficacy (kill in %)” value in the data set with Myzus persicae (setting [2]) and in the data set on Myzus persicae (setting [3]) was 100% throughout.

Turning to `Cc1cc(NC(=O)c2cccnc2)nn1C(=O)NC(C)c1ccccc1` (centres unmarked) [Compound I-1-331], the “log P (acid)” value in data set [1] (LC-MS in the acidic range) is 2.22. Also, the “efficacy (kill in %)” value with Myzus persicae (setting [2]) and with Myzus persicae (setting [3]) was 100% throughout.

For `Cc1cc(NC(=O)c2cccnc2)nn1C(=O)NC(C)c1ccc(F)cc1` (centres unmarked) [Compound I-1-332], the “log P (acid)” value in data set [1] (LC-MS in the acidic range) was 2.28. In addition, the “efficacy (kill in %)” value in the data set with Myzus persicae (setting [2]) and with Myzus persicae (setting [3]) was 100% each time.

`Cc1cc(NC(=O)c2cccnc2)nn1C(=O)NCc1ncccn1` [Compound I-1-334]: the “log P (acid)” value in data set [1] (LC-MS in the acidic range) stood at 0.95. Moreover, the “efficacy (kill in %)” value in the data set with Myzus persicae (setting [2]) and with Myzus persicae (setting [3]) was 100% each time.

With `Cc1cc(NC(=O)c2cccnc2)nn1C(=O)NCc1ccncn1` [Compound I-1-336], the “log P (acid)” value in data set [1] (LC-MS in the acidic range) is 1.05. The “efficacy (kill in %)” value in the data set with Myzus persicae (setting [2]) and in the data set with Myzus persicae (setting [3]) was 100% each time.

On to `Cc1cc(NC(=O)c2cccnc2)nn1Cc1ccc2nsnc2c1` [Compound I-1-339], for which, in data set [1] (LC-MS in the acidic range), the “log P (acid)” value turned out to be 1.61. For the same molecule, the “efficacy (kill in %)” value in the data set on Myzus persicae (setting [3]) turned out to be 100%.

With `Cc1cc(NC(=O)c2cccnc2)nn1Cc1nc2cc(Cl)ccc2o1` [Compound I-1-340], in data set [1] (LC-MS in the acidic range), the “log P (acid)” value worked out at 2. In addition, the “efficacy (kill in %)” value in the data set on Myzus persicae (setting [2]) and in the data set on Myzus persicae (setting [3]) was 100% in each case.

On to `Cc1cc(NC(=O)c2cccnc2)nn1Cc1ccc2ccccc2n1` [Compound I-1-341], for which the “log P (acid)” value in data set [1] (LC-MS in the acidic range) amounted to 1.66. In addition, the “efficacy (kill in %)” value with Myzus persicae (setting [2]) and with Myzus persicae (setting [3]) was 100% each time.

Consider `Cc1cc(NC(=O)c2cccnc2)nn1C(C)(C)C` [Compound I-1-347], for which the “log P (acid)” value in data set [1] (LC-MS in the acidic range) is 1.61. Moreover, the “efficacy (kill in %)” value in the data set with Myzus persicae (setting [2]) is 80%; in the data set on Myzus persicae (setting [3]), 100%.

In the case of `Cc1cc(NC(=O)c2cncc(F)c2)nn1C(C)(C)C` [Compound I-1-348], in data set [1] (LC-MS in the acidic range), the “log P (acid)” value turned out to be 2.13. Besides, in the data set with Myzus persicae (setting [3]), the “efficacy (kill in %)” value is 80%.

On to `Cc1cc(NC(=O)c2cccnc2)nn1-c1ccccc1` [Compound I-1-349], for which, in data set [1] (LC-MS in the acidic range), the “log P (acid)” value was determined as 1.7. Also, the “efficacy (kill in %)” value in the data set with Myzus persicae (setting [3]) was determined as 100%.

Turning to `Cc1cc(NC(=O)c2cncc(F)c2)nn1-c1ccccc1` [Compound I-1-350], the “log P (acid)” value in data set [1] (LC-MS in the acidic range) was 2.18. In addition, in the data set with Myzus persicae (setting [3]), the “efficacy (kill in %)” value was found to be 80%.

In the case of `Cc1cc(NC(=O)c2cccnc2)nn1Cc1cn2nc(Cl)ccc2n1` [Compound I-1-351], in data set [1] (LC-MS in the acidic range), the “log P (acid)” value is reported as 1.42. Moreover, the “efficacy (kill in %)” value in the data set on Myzus persicae (setting [3]) amounted to 100%.

For `Cc1ccc2oc(Cn3nc(NC(=O)c4cccnc4)cc3C)nc2c1` [Compound I-1-353], the “log P (acid)” value in data set [1] (LC-MS in the acidic range) was determined as 1.9. Also, the “efficacy (kill in %)” value with Myzus persicae (setting [2]) and in the data set on Myzus persicae (setting [3]) was 100% in each case.

`Cc1nc(NC(=O)c2cccnc2)n[nH]1` [Compound I-2-1]: the “log P (acid)” value in data set [1] (setting [4]) is less than −0.23. Moreover, in the data set with Myzus persicae (setting [3]), the “efficacy (kill in %)” value was 100%.

Take `CCc1nc(NC(=O)c2cccnc2)nn1-c1ccccc1` [Compound I-2-6]: the “log P (acid)” value in data set [1] (setting [4]) came out at 1.24. Moreover, the “efficacy (kill in %)” value in the data set on Myzus persicae (setting [3]) was 100%.

Take `Cn1cnc(NC(=O)c2cccnc2)n1` [Compound I-2-14]: in data set [1] (setting [4]), the “log P (acid)” value is listed as less than −0.23. Further, in the data set on Myzus persicae (setting [3]), the “efficacy (kill in %)” value is 100%.

For the molecule `CCc1nc(NC(=O)c2cccnc2)nn1C` [Compound I-2-17], the “log P (acid)” value in data set [1] (setting [4]) was 0.01. In addition, the “efficacy (kill in %)” value in the data set with Myzus persicae (setting [3]) came out at 100%.

For `COCn1cnc(NC(=O)c2cccnc2)n1` [Compound I-2-18], the “log P (acid)” value in data set [1] (setting [4]) is on record as −0.23. Also, the “efficacy (kill in %)” value in the data set with Myzus persicae (setting [3]) was determined as 80%.

With `O=C(Nc1ncn(Cc2cccc(Cl)c2)n1)c1cccnc1` [Compound I-2-19], in data set [1] (setting [4]), the “log P (acid)” value stood at 1.33. In addition, in the data set with Myzus persicae (setting [3]), the “efficacy (kill in %)” value stood at 100%.

Turning to `Cc1cc(C)nc(-n2cnc(NC(=O)c3cccnc3)n2)n1` [Compound I-2-22], the “log P (acid)” value in data set [1] (setting [4]) amounted to 0.86. Besides, the “efficacy (kill in %)” value with Myzus persicae (setting [3]) was determined as 80%.

For `Cc1ccccc1Cn1cnc(NC(=O)c2cccnc2)n1` [Compound I-2-23], the “log P (acid)” value in data set [1] (setting [4]) is on record as 1.23. Also, the “efficacy (kill in %)” value with Myzus persicae (setting [3]) was 100%.

With `CSc1nc(NC(=O)c2cccnc2)nn1C` [Compound I-2-26], in data set [1] (setting [4]), the “log P (acid)” value is 0.32. Moreover, the “efficacy (kill in %)” value in the data set on Myzus persicae (setting [3]) is reported as 100%.

As for `Cc1nn(-c2ccccn2)nc1NC(=O)c1cccnc1` [Compound I-3-1, N-[5-Methyl-2-(pyridin-2-yl)-2H-1,2,3-triazol-4-yl]nicotinamide], the chromatographic logP in data set [1] (pH 2.7, Table 3, HPLC on reversed-phase column (C 18), 55° C., acidic range (pH 2.7 or pH 2.3), read-out: log P (acid)) was determined as 1.08; in data set [1] (pH 2.7, values given in the synthesis examples and NMR lists, read-out: HPLC-MS: log P), 1.08. Besides, the pest or weed control at 6 ppm in the data set with Myzus persicae (Myzus persicae, application rate of 6 ppm in nutrient medium, read-out: efficacy (kill in %)) was found to be 100%. The pest or weed control at 30 ppm in the data set with Myzus persicae (Myzus persicae, application rate of 30 ppm in nutrient medium, read-out: efficacy (kill in %)) was 100%.

For `Cn1ncc(NC(=O)c2cccnc2)n1` [Compound I-3-2], the “log P (acid)” value in data set [1] (setting [5]) is 0.38. The “efficacy (kill in %)” value with Myzus persicae (setting [3]) turned out to be 100%.

As to `O=C(Nc1cnn(-c2ncc(C(F)(F)F)cc2Cl)n1)c1cccnc1` [Compound I-3-5], the “log P (acid)” value in data set [1] (setting [5]) is 2.12. Further, in the data set with Myzus persicae (setting [3]), the “efficacy (kill in %)” value was found to be 100%.

For `O=C(Nc1nn(-c2ncccc2Cl)nc1C(F)(F)F)c1cccnc1` [Compound I-3-6], the “log P (acid)” value in data set [1] (setting [5]) was 1.89. In the data set on Myzus persicae (setting [3]), the “efficacy (kill in %)” value worked out at 100%.

The values are drawn from patent US20160106102A1, “KNOWN AND NEW HETEROCYCLIC COMPOUNDS AS PEST CONTROL AGENTS” (BAYER CROPSCIENCE AKTIENGESELLSCHAFT, priority 2013, published 2016).
